Measurements: ChEMBL document CHEMBL1151745, “Identification of potent, selective, and metabolically stable peptide antagonists to the calcitonin gene-related peptide (CGRP) receptor” (J Med Chem, 2008)
Active and inactive are the calls of the source. The rule behind the calls is not given here. Where a SMILES comes first, the peptide text is derived from it. [ ]: non-standard residue; d: D form. Igl = N[C@H](C(=O)O)C1Cc2ccccc2C1; hArg = N=C(N)NCCCC[C@H](N)C(=O)O; Tic = O=C(O)[C@@H]1Cc2ccccc2CN1; Cit = NC(=O)NCCC[C@H](N)C(=O)O

Target: Calcitonin gene-related peptide type 1 receptor (Homo sapiens) (UniProt Q16602)
Assay: Agonist activity at human CGRP1 receptor in human SK-N-MC cells

Calcitonin gene-related peptide type 1 receptor (Homo sapiens), sequence (Q16602 whole entry, looked up): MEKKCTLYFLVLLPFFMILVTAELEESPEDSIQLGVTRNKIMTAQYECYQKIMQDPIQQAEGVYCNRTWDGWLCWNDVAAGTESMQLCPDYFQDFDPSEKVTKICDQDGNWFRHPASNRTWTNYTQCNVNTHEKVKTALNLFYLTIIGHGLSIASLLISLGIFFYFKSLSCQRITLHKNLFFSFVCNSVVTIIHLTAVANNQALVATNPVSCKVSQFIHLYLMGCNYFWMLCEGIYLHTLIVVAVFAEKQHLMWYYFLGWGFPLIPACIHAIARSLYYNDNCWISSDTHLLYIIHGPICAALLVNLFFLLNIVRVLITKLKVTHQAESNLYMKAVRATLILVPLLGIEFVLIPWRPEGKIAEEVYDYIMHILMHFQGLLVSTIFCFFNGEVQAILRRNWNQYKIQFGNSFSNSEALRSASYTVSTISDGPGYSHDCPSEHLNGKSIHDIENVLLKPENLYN

SMILES | Activity
CC(=O)N[C@@H](Cc1c[nH]c2ccccc12)C(=O)N[C@H](C(=O)N[C@H](C(=O)N[C@@H](Cc1cnc[nH]1)C(=O)N[C@@H](CCCNC(N)=O)C(=O)N[C@@H](CC(C)C)C(=O)N[C@@H](C)C(=O)NCC(=O)N[C@@H](CC(C)C)C(=O)N[C@@H](CC(C)C)C(=O)N[C@@H](CO)C(=O)N[C@@H](CCCNC(N)=O)C(=O)N[C@@H](CO)C(=O)NCC(=O)NCC(=O)N[C@H](C(=O)N[C@H](C(=O)N[C@@H](CCCCNC(=N)N)C(=O)N[C@@H](CCCCN)C(=O)N[C@@H](CC(N)=O)C(=O)N[C@@H](Cc1ccccc1)C(=O)N[C@H](C(=O)N1CCC[C@H]1C(=O)N[C@H](C(=O)N[C@@H](CC(=O)O)C(=O)N[C@H](C(=O)NCC(=O)N1CCC[C@H]1C(=O)N[C@H](C(=O)N[C@@H](C)C(=O)N[C@@H](Cc1ccccc1)C(N)=O)C1Cc2ccccc2C1)C(C)C)[C@@H](C)O)C(C)C)C(C)C)C(C)C)[C@@H](C)O)C(C)C (Ac-WVTH[Cit]LAGLLS[Cit]SGGVV[hArg]KNFVPTDVGP[Igl]AF-NH2) | inactive
CC(=O)N[C@@H](Cc1c[nH]c2ccccc12)C(=O)N[C@H](C(=O)N[C@H](C(=O)N[C@@H](Cc1cnc[nH]1)C(=O)N[C@@H](CCCNC(N)=O)C(=O)N[C@@H](CC(C)C)C(=O)N[C@@H](C)C(=O)NCC(=O)N[C@@H](CC(C)C)C(=O)N[C@@H](CC(C)C)C(=O)N[C@@H](CO)C(=O)N[C@@H](CCCNC(N)=O)C(=O)N[C@@H](CO)C(=O)NCC(=O)NCC(=O)N[C@H](C(=O)N[C@H](C(=O)N[C@@H](CCCCNC(=N)N)C(=O)N[C@@H](CCCCN)C(=O)N[C@@H](CC(N)=O)C(=O)N[C@@H](Cc1ccc2ccccc2c1)C(=O)N[C@H](C(=O)N1CCC[C@H]1C(=O)N[C@H](C(=O)N[C@@H](CC(=O)O)C(=O)N[C@H](C(=O)NCC(=O)N1C2CCCCC2C[C@H]1C(=O)N[C@@H](Cc1ccccc1)C(=O)N[C@@H](C)C(=O)N[C@@H](Cc1ccc2ccccc2c1)C(N)=O)C(C)C)[C@@H](C)O)C(C)C)C(C)C)C(C)C)[C@@H](C)O)C(C)C (stereo partly specified) | inactive
CC(=O)N[C@@H](Cc1c[nH]c2ccccc12)C(=O)N[C@H](C(=O)N[C@H](C(=O)N[C@@H](Cc1cnc[nH]1)C(=O)N[C@@H](CCCNC(N)=O)C(=O)N[C@@H](CC(C)C)C(=O)N[C@@H](C)C(=O)NCC(=O)N[C@@H](CC(C)C)C(=O)N[C@@H](CC(C)C)C(=O)N[C@@H](CO)C(=O)N[C@@H](CCCNC(N)=O)C(=O)N[C@@H](CO)C(=O)NCC(=O)NCC(=O)N[C@H](C(=O)N[C@H](C(=O)N[C@@H](CCCCNC(=N)N)C(=O)N[C@@H](CCCCN)C(=O)N[C@@H](CC(N)=O)C(=O)N[C@@H](Cc1ccccc1)C(=O)N[C@H](C(=O)N1CCC[C@H]1C(=O)N[C@H](C(=O)N[C@@H](CC(=O)O)C(=O)N[C@H](C(=O)NCC(=O)N1Cc2[nH]c3ccccc3c2C[C@H]1C(=O)N[C@@H](Cc1ccccc1)C(=O)N[C@@H](C)C(=O)N[C@@H](Cc1ccccc1)C(N)=O)C(C)C)[C@@H](C)O)C(C)C)C(C)C)C(C)C)[C@@H](C)O)C(C)C | inactive
CC(=O)N[C@@H](Cc1c[nH]c2ccccc12)C(=O)N[C@H](C(=O)N[C@H](C(=O)N[C@@H](Cc1cnc[nH]1)C(=O)N[C@@H](CCCNC(N)=O)C(=O)N[C@@H](CC(C)C)C(=O)N[C@@H](C)C(=O)NCC(=O)N[C@@H](CC(C)C)C(=O)N[C@@H](CC(C)C)C(=O)N[C@@H](CO)C(=O)N[C@@H](CCCNC(N)=O)C(=O)N[C@@H](CO)C(=O)NCC(=O)NCC(=O)N[C@H](C(=O)N[C@H](C(=O)N[C@@H](CCCNC(=N)N)C(=O)N[C@@H](CCCCN)C(=O)N[C@@H](CC(N)=O)C(=O)N[C@@H](Cc1ccccc1)C(=O)N[C@H](C(=O)N1CCC[C@H]1C(=O)N[C@H](C(=O)N[C@@H](CC(=O)O)C(=O)N[C@H](C(=O)NCC(=O)N1C2CCCCC2C[C@H]1C(=O)N[C@@H](Cc1ccccc1)C(=O)N[C@@H](C)C(=O)N[C@@H](Cc1ccccc1)C(N)=O)C(C)C)[C@@H](C)O)C(C)C)C(C)C)C(C)C)[C@@H](C)O)C(C)C (stereo partly specified) | inactive
CC(=O)N[C@@H](Cc1c[nH]c2ccccc12)C(=O)N[C@H](C(=O)N[C@H](C(=O)N[C@@H](Cc1cnc[nH]1)C(=O)N[C@@H](CCCNC(N)=O)C(=O)N[C@@H](CC(C)C)C(=O)N[C@@H](C)C(=O)NCC(=O)N[C@@H](CC(C)C)C(=O)N[C@@H](CC(C)C)C(=O)N[C@@H](CO)C(=O)N[C@@H](CCCNC(N)=O)C(=O)N[C@@H](CO)C(=O)NCC(=O)NCC(=O)N[C@H](C(=O)N[C@H](C(=O)N[C@@H](CCCCNC(=N)N)C(=O)N[C@@H](CCCCN)C(=O)N[C@@H](CC(N)=O)C(=O)N[C@@H](Cc1ccccc1)C(=O)N[C@H](C(=O)N1CCC[C@H]1C(=O)N[C@H](C(=O)N[C@@H](CC(=O)O)C(=O)N[C@H](C(=O)NCC(=O)N(C)CC(=O)N[C@@H](Cc1ccccc1)C(=O)N[C@@H](C)C(=O)N[C@@H](Cc1ccccc1)C(N)=O)C(C)C)[C@@H](C)O)C(C)C)C(C)C)C(C)C)[C@@H](C)O)C(C)C | inactive
CC(=O)N[C@@H](Cc1c[nH]c2ccccc12)C(=O)N[C@H](C(=O)N[C@H](C(=O)N[C@@H](Cc1cnc[nH]1)C(=O)N[C@@H](CCCNC(N)=O)C(=O)N[C@@H](CC(C)C)C(=O)N[C@@H](C)C(=O)NCC(=O)N[C@@H](CC(C)C)C(=O)N[C@@H](CC(C)C)C(=O)N[C@@H](CO)C(=O)N[C@@H](CCCNC(N)=O)C(=O)N[C@@H](CO)C(=O)NCC(=O)NCC(=O)N[C@H](C(=O)N[C@H](C(=O)N[C@@H](CCCCNC(=N)N)C(=O)N[C@@H](CCCCN)C(=O)N[C@@H](CC(N)=O)C(=O)N[C@@H](Cc1ccccc1)C(=O)N[C@H](C(=O)N1CCC[C@H]1C(=O)N[C@H](C(=O)N[C@@H](CC(=O)O)C(=O)N[C@H](C(=O)NCC(=O)N1CCC[C@@H]1C(=O)N[C@@H](Cc1ccc(-c2ccccc2)cc1)C(=O)N[C@@H](C)C(=O)N[C@@H](Cc1ccccc1)C(N)=O)C(C)C)[C@@H](C)O)C(C)C)C(C)C)C(C)C)[C@@H](C)O)C(C)C | inactive
CC(=O)N[C@@H](Cc1c[nH]c2ccccc12)C(=O)N[C@H](C(=O)N[C@H](C(=O)N[C@@H](Cc1cnc[nH]1)C(=O)N[C@@H](CCCNC(N)=O)C(=O)N[C@@H](CC(C)C)C(=O)N[C@@H](C)C(=O)NCC(=O)N[C@@H](CC(C)C)C(=O)N[C@@H](CC(C)C)C(=O)N[C@@H](CO)C(=O)N[C@@H](CCCNC(N)=O)C(=O)N[C@@H](CO)C(=O)NCC(=O)NCC(=O)N[C@H](C(=O)N[C@H](C(=O)N[C@@H](CCCCNC(=N)N)C(=O)N[C@@H](CCCCN)C(=O)N[C@@H](CC(N)=O)C(=O)N[C@@H](Cc1ccccc1)C(=O)N[C@H](C(=O)N1CCC[C@H]1C(=O)N[C@H](C(=O)N[C@@H](CC(=O)O)C(=O)N[C@H](C(=O)NCC(=O)N1CCC[C@H]1C(=O)N1Cc2ccccc2C[C@H]1C(=O)N[C@@H](C)C(=O)N[C@@H](Cc1ccccc1)C(N)=O)C(C)C)[C@@H](C)O)C(C)C)C(C)C)C(C)C)[C@@H](C)O)C(C)C (Ac-WVTH[Cit]LAGLLS[Cit]SGGVV[hArg]KNFVPTDVGP[Tic]AF-NH2) | inactive

The remaining lines, values ahead:

Activity | SMILES
inactive | CC(=O)N[C@@H](Cc1c[nH]c2ccccc12)C(=O)N[C@H](C(=O)N[C@H](C(=O)N[C@@H](Cc1cnc[nH]1)C(=O)N[C@@H](CCCNC(N)=O)C(=O)N[C@@H](CC(C)C)C(=O)N[C@@H](C)C(=O)NCC(=O)N[C@@H](CC(C)C)C(=O)N[C@@H](CC(C)C)C(=O)N[C@@H](CO)C(=O)N[C@@H](CCCNC(=N)N)C(=O)N[C@@H](CO)C(=O)NCC(=O)NCC(=O)N[C@H](C(=O)N[C@H](C(=O)N[C@@H](CCCNC(=N)N)C(=O)N[C@@H](CCCCN)C(=O)N[C@@H](CC(N)=O)C(=O)N[C@@H](Cc1ccccc1)C(=O)N[C@H](C(=O)N1CCC[C@H]1C(=O)N[C@H](C(=O)N[C@@H](CC(=O)O)C(=O)N[C@H](C(=O)NCC(=O)N1CCC[C@H]1C(=O)N[C@@H](Cc1ccccc1)C(=O)N[C@@H](C)C(=O)N[C@@H](Cc1ccccc1)C(N)=O)C(C)C)[C@@H](C)O)C(C)C)C(C)C)C(C)C)[C@@H](C)O)C(C)C
inactive | CC(=O)N[C@@H](Cc1c[nH]c2ccccc12)C(=O)N[C@H](C(=O)N[C@H](C(=O)N[C@@H](Cc1cnc[nH]1)C(=O)N[C@@H](CCCNC(=N)N)C(=O)N[C@@H](CC(C)C)C(=O)N[C@@H](C)C(=O)NCC(=O)N[C@@H](CC(C)C)C(=O)N[C@@H](CC(C)C)C(=O)N[C@@H](CO)C(=O)N[C@@H](CCCNC(N)=O)C(=O)N[C@@H](CO)C(=O)NCC(=O)NCC(=O)N[C@H](C(=O)N[C@H](C(=O)N[C@@H](CCCNC(=N)N)C(=O)N[C@@H](CCCCN)C(=O)N[C@@H](CC(N)=O)C(=O)N[C@@H](Cc1ccccc1)C(=O)N[C@H](C(=O)N1CCC[C@H]1C(=O)N[C@H](C(=O)N[C@@H](CC(=O)O)C(=O)N[C@H](C(=O)NCC(=O)N1CCC[C@H]1C(=O)N[C@@H](Cc1ccccc1)C(=O)N[C@@H](C)C(=O)N[C@@H](Cc1ccccc1)C(N)=O)C(C)C)[C@@H](C)O)C(C)C)C(C)C)C(C)C)[C@@H](C)O)C(C)C
inactive | CC(=O)N[C@@H](Cc1c[nH]c2ccccc12)C(=O)N[C@H](C(=O)N[C@H](C(=O)N[C@@H](Cc1cnc[nH]1)C(=O)N[C@@H](CCCNC(N)=O)C(=O)N[C@@H](CC(C)C)C(=O)N[C@@H](C)C(=O)NCC(=O)N[C@@H](CC(C)C)C(=O)N[C@@H](CC(C)C)C(=O)N[C@@H](CO)C(=O)N[C@@H](CCCNC(N)=O)C(=O)N[C@@H](CO)C(=O)NCC(=O)NCC(=O)N[C@H](C(=O)N[C@H](C(=O)N[C@@H](CCCCNC(=N)N)C(=O)N[C@@H](CCCCN)C(=O)N[C@@H](CC(N)=O)C(=O)N[C@@H](Cc1ccccc1)C(=O)N[C@H](C(=O)N1CCC[C@H]1C(=O)N[C@H](C(=O)N[C@@H](CC(=O)O)C(=O)N[C@H](C(=O)NCC(=O)N1C[C@H](O)C[C@H]1C(=O)N[C@@H](Cc1ccccc1)C(=O)N[C@@H](C)C(=O)N[C@@H](Cc1ccccc1)C(N)=O)C(C)C)[C@@H](C)O)C(C)C)C(C)C)C(C)C)[C@@H](C)O)C(C)C
inactive | CC(=O)N[C@@H](Cc1c[nH]c2ccccc12)C(=O)N[C@H](C(=O)N[C@H](C(=O)N[C@@H](Cc1cnc[nH]1)C(=O)N[C@@H](CCCNC(N)=O)C(=O)N[C@@H](CC(C)C)C(=O)N[C@@H](C)C(=O)NCC(=O)N[C@@H](CC(C)C)C(=O)N[C@@H](CC(C)C)C(=O)N[C@@H](CO)C(=O)N[C@@H](CCCNC(N)=O)C(=O)N[C@@H](CO)C(=O)NCC(=O)NCC(=O)N[C@H](C(=O)N[C@H](C(=O)N[C@@H](CCCCNC(=N)N)C(=O)N[C@@H](CCCCN)C(=O)N[C@@H](CC(N)=O)C(=O)N[C@@H](Cc1ccccc1)C(=O)N[C@H](C(=O)N1CCC[C@H]1C(=O)N[C@H](C(=O)N[C@@H](CC(=O)O)C(=O)N[C@H](C(=O)NCC(=O)N1CSC[C@H]1C(=O)N[C@@H](Cc1ccccc1)C(=O)N[C@@H](C)C(=O)N[C@@H](Cc1ccccc1)C(N)=O)C(C)C)[C@@H](C)O)C(C)C)C(C)C)C(C)C)[C@@H](C)O)C(C)C
